According to US20160109438A1, “PROTEASE-RESPONSIVE PEPTIDE BIOSENSORS AND METHODS FOR ANALYTE DETECTION” (AGENCY FOR SCIENCE, TECHNOLOGY AND RESEARCH, priority 2013, published 2016):

How the values were obtained:
[1] = molecular target: T1, Mdm2 (Homo sapiens, UniProt Q00987); test: Mdm2-enterokinase sensor assay; type: biochemical; conditions: for substrate turnover (time course): sensor with enterokinase and mdm2, compared with DMSO only
T1 construct: derived from N-terminal domain (amino acids 18-125) of wild type Mdm2 protein; 10x His; made in house; host or cells: E. coli
T1 sequence (Q00987 18-125, species assumed): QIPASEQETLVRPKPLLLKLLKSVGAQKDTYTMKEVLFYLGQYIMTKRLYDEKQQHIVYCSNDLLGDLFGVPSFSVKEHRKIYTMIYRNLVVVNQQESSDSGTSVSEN
Method: Nutlin was used as the positive control and a mutant p53 peptide, which cannot bind to Mdm2 was used as the negative control. The reaction was monitored using absorbance measurements at OD492 on a Perkin Elmer plate reader every 2 min. The signal was calculated from reading 5 minus reading 3. This assay was repeated three times and the average gradient value with standard error was reported.
The screening was divided into two steps. In the first step, the screening was carried out at the fixed compound concentration of […]. In the second step, a dose-response experiment of different hits found in the first step was conducted. […] The OD492 value of read number 3 was subtracted from that of read number 5 (OD492 readings were taken every 2 min) which was designated as signal. […] Fold change=Gradient of Hits (Reading 5−Reading 3)/Gradient of control (Reading 5−Reading 3)

[2] = molecular target: Mdm2 N-terminal domain (Homo sapiens, UniProt Q00987); test: Protease exclusion sensor using fluorescence labeled internally quenched peptide (P1); conditions: for response of the peptide sensor (rate of fluorescence increase): various concentrations, with enterokinase and Mdm2
Mdm2 N-terminal domain, sequence (Q00987 18-125): as the sequence (Q00987 18-125, species assumed) above

[3] = tested on: HA antibody; test: Thrombin-HA protease exclusion sensor; type: biochemical
Description: An HA-antibody binds to the HA epitope ([…]; SEQ ID NO:3). The Binding of an anti-HA antibody to its epitope would disallow protease, access to its recognition site due to steric obstruction by the higher affinity HA antibody. Addition of excess HA peptide should sequester the HA antibody, leading to renewed protease access to its recognition site, bringing about increased enzyme activity in response to the HA peptide. […] Starting from the left, the rate of substrate turnover is shown after 0 nM, 4 nM, 40 nM, 400 nM and 4000 nM addition of free HA peptide to the tested sensor.

[4] = tested on: HA antibody / HA epitope; test: HA-enterokinase sensor assay; type: biochemical; conditions: 0 nM, 4 nM, 40 nM, 400 nM and 4000 nM; enterokinase and HA antibody present
[5] = molecular target: HA antibody (clone not named, FIG. 3B and FIG. 8B); test: cell-based or functional assay
[6] = molecular target: T2, Mdm2 N-terminal domain (amino acids 18-125) of wild type Mdm2 protein engineered with 10x His tag (UniProt Q00987 18-125); test: Mdm2-enterokinase sensor assay, substrate turnover at OD492
T2 construct: range 18-125; expressed in E. coli; also called Mdm2 N-terminus; Mdm2 N terminus
T2 sequence (Q00987 18-125 limits assumed, change not shown): as the sequence (Q00987 18-125, species assumed) above

O=c1[nH]cc(F)c(=O)[nH]1 [5 FU]
substrate turnover (time course) [1]: does not lead to increased turnover

ETASDLAKLAP (mutated p53 peptide) [mutant p53 peptide]
substrate turnover (time course) [1]: does not lead to increased turnover | response of the peptide sensor (rate of fluorescence increase) [2]: not

HA peptide: free peptide of the influenza hemagglutinin (HA) epitope, sequesters the HA antibody
rate of substrate turnover ([3]; thrombin and HA antibody, varying amounts of free peptide): increases with increasing amount | amount of peptide giving the highest substrate turnover ([3]; thrombin-HA protease exclusion sensor): 400 nM | substrate turnover after addition of free HA peptide [4]: concentration-dependent increase of substrate turnover

Nutlin
substrate turnover (time course) [1]: substrate turnover increases substantially | rate of turnover of substrate in response to various amounts ([1]; various amounts of competitor): increased turnover signal | detectable concentrations ([2]; signal to noise ratio ~5-6x): low micromolar | response of the peptide sensor (rate of fluorescence increase) [2]: strong response

free HA peptide
HA peptide concentration with the highest substrate turnover (thrombin-HA protease exclusion sensor) [5]: 400 nM

B1: mutant p53 peptide with critical residues mutated to alanine (ETASDLAKLAP) (peptide)
peptide: ETASDLAKLAP
notes: Synthetic negative control peptide; also called peptide C
binding result [6]: no binding
